{"source": "patent US4870057A", "about": "“Use of fructose-1,6-diphosphate in the treatment of acute alcoholic intoxication and chronic ethylism, and related pharmaceutical compositions” (priority 1988, dated 1989)", "key": {"[1]": {"test": "Ethanol hematic concentrations and pharmacokinetics in volunteers given ethanol orally after FDP infusion (cross-over)", "assay_type": "in vivo, male volunteers (human)", "text": "(§1) Male volunteers (ages 19 to 46, 73 kg average weight) in good conditions of health as ascertained by objective test and hematologic and biochemical analyses, participated in the investigation. None of the subjects had used drugs during the week before the study nor in the course of the study.\n(§2) Each subject was given, in two sittings, with one wash-out week interval between sittings, ethanol (control) and ethanol with added fructose-1,6-diphosphate (FDP) according to an experimental cross-over design. After one night of fasting, each patient received ethanol orally, in the morning, at a rate of 0.5 g/kg body weight, as a 30% analytical grade ethyl alcohol solution in effervescent mineral water. FDP was administered at the rate of 250 mg/kg of fructose-1,6-diphosphate sodium hydrate salt in an intravenous infusion during 20 minutes (2.5 ml/kg).\n(§3) From the individual data obtained in each sitting and for each subject, the values of the following parameters were calculated: maximum concentration (Cmax), time for attaining maximum concentration (Tmax), mean life of absorption (Ab t1/2), mean life of elimination (El t1/2) and area under curve zero to infinity (AUC). The ethanol and acetaldehyde concentrations were measured in the two sittings of study and the values of the pharmacokinetic parameters given above were compared by the Student's t-test for paired data, with the exception of the maximum concentration times of ethanol which were compared by the Wilcoxon test. The level of statistical significances was set at 5%."}, "[2]": {"system": "patients in a state of acute drunkenness", "test": "Vital signals (heart rate, arterial pressure) in patients with acute drunkenness", "assay_type": "in vivo, patients (human)", "method": "(§4) 28 patients were selected, 26 males and 2 females, aged 17 to 68, which had been taken to a first aid post for traumas suffered during a state of acute drunkenness (18 cases) or to phenomena resulting from that state of drunkenness (10 cases). Of the patients under observation, 18 were chronic alcoholics and 10 were subjects with no alcoholism story (Table 4).\n(§5) The patients then received, at random, one rapid infusion of 15 g FDP as a 10% sodium salt solution of FDP, or a 5% (150 ml) glucose solution. 15 minutes after the completion of infusion, evaluations were repeated.\n(§6) Following the first anamnestic and diagnostic checks, measurements were taken of the arterial pressure and the heart rate. Then, evaluation was made, in basal conditions, of the psychic and behavioral state (psychomotor excitement, vigilance, time-space orientation and lucidity) and the neurological state (equilibrium, forefinger-nose test, palpebral, corneal and pain reflexes). For the semiquantitative evaluation of the selected parameters, severity scales with arbitrary ratings were adopted. Evaluation of lucidity was made by using the figure repeating test.\n(§7) The data obtained for each patient were compared with those obtained before the treatment by means of the mixed pattern variance analysis followed, in case of gross significance, by the Tukey's multiple comparison test. A 5% level was used as the minimum level of statistical significance."}, "[3]": {"system": "patients in a state of acute drunkenness", "test": "Impairment scores in neurologic tests in patients with acute drunkenness", "assay_type": "in vivo, patients (human)", "method": "as §4, §5, §6, §7"}, "[4]": {"conditions": "no test described; cited from earlier work"}, "[5]": {"test": "Acetaldehyde hematic concentrations in volunteers given ethanol orally after FDP infusion (cross-over)", "assay_type": "in vivo, male volunteers (human)", "conditions": "Student's t test for coupled data", "text": "as §1\nas §2, with “FDP was administered at the rate of 250 mg/kg of fructose-1,6-diphosphate sodium hydrate salt in an intravenous infusion during 20 minutes (2.5 ml/kg).” left out\nas §3, with “The level of statistical significances was set at 5%.” left out"}, "[6]": {"test": "Tolerability in patients with acute drunkenness", "conditions": "human, in vivo", "method": "as §4, §5"}, "[7]": {"system": "chronic alcoholics at a stage of detoxication", "test": "Neurological symptoms (impairment scores in neurological tests) in chronic alcoholics at a stage of detoxication", "assay_type": "in vivo, patients (human)", "conditions": "for Reflexes impairment score: basal 1.6, control 1.2; for Ataxia-tremors cramps impairment score: basal 1.7; for Sensitivity impairment score: basal 3.0", "method": "(§8) This study left out patients more than 70 years old or patients suffering from severe renal or cardiovascular impairment, diabetes or other pathologies (epilepsy, delirium […] could prevent evaluation of the investigated treatment. During study, which was conducted single blind, two therapeutic procedures were compared for a period of 8 days allotted as follows: one day (I) for selection and basic determinations at the time of alcohol withdrawal; six days (II-VII) for treatment; one day (VIII) for follow-up. […] Some of the patients received, days II to IV, a total parenteral nutrition (NTP) followed by hypercaloric diet during the remaining three days. During the study, no further drugs were administered except those which would be required by concomitant pathologies and which could not interfere with the nutritional state. In the patients imperatively requiring a control of psychomotor derangement during the abstinence period, chlordimethyldiazepam (2 mg/iv) was used and the daily doses thereof were recorded. On the first day the history, particularly in respect of alcoholism, was obtained. On days I, V and VIII a thorough examination of the patient's neurological and psychiatric conditions was performed. The psychic areas were evaluated by using simplified rating scales for the psychomotor derangement and the behaviour and consciousness disorders present in the alcohol withdrawal period. For the neurological evaluation, there were taken into consideration the reflexes, the exteroceptive and propioceptive sensitivities and the presence of ataxia, tremors and cramps, and semiquantitative ratings of 0 (no symptom or normal picture) to 3 (high severity symptom or no response) were assigned."}, "[8]": {"system": "chronic alcoholics at a stage of detoxication", "test": "Psychiatric symptoms (psychic and behavioural state scores) in chronic alcoholics at a stage of detoxication", "assay_type": "in vivo, patients (human)", "conditions": "for Motor derangement score: FDP group (20 g/day i.v. days II-VII plus nutrition), basal 1.4; for Motor derangement score / Behavioural disorders score / Conscience disorders score: p < 0.01 vs basal; for Behavioural disorders score / Conscience disorders score: FDP group; for Behavioural disorders score: basal 1.3; for Conscience disorders score: basal 1.5", "method": "as §8"}, "[9]": {"system": "patients in a state of acute drunkenness", "test": "Psychic and behavioural conditions scores in patients with acute drunkenness", "assay_type": "in vivo, patients (human)", "method": "as §4, §5, §6, §7"}}, "note": "Where “and” joins values, the source holds several entries; their conditions need not be identical. Equal entries are not always repeated."}
{"smiles": "O=C(COP(=O)(O)O)[C@@H](O)[C@H](O)[C@H](O)COP(=O)(O)O", "note": "[FDP, fructose-1,6-diphosphate]", "values": [{"measurement": "Ethanol AUC in the 0-90 min range, lower following FDP", "setting": "[1]; 0-90 min, vs control (FIG. 1)", "value": 40, "unit": "%"}, {"measurement": "Percent difference of ethanol concentration after FDP with respect to control (lower)", "setting": "[1]; 15 min", "value": 70, "unit": "%"}, {"measurement": "Percent difference of ethanol concentration after FDP with respect to control (lower)", "setting": "[1]; 30 min", "value": 64, "unit": "%"}, {"measurement": "Percent difference of ethanol concentration after FDP with respect to control (lower)", "setting": "[1]; 60 min", "value": 31, "unit": "%"}, {"measurement": "Ethanol AUC (zero to infinity), average", "setting": "[1]; FDP session, Table 2, n = 8, SD 976, control 2229", "value": 2695, "unit": "mmol·min/L"}, {"measurement": "Ethanol AUC (zero to infinity), average", "setting": "[1]; FDP sitting, control 2695", "value": 2229, "unit": "mmol·min/L"}, {"measurement": "Significance of the difference in ethanol AUC vs control", "setting": "[1]; Student's t test, paired", "value": "no significant differences"}, {"measurement": "Significance of the difference in ethanol maximum concentration vs control", "setting": "[1]; Student's t test, paired", "value": "the observed difference did not attain statistical significance"}, {"measurement": "Difference in the alcohol absorption rate", "setting": "[1]; from absorption half-life vs control, p<0.05", "value": 66, "unit": "%"}, {"measurement": "Time for attaining maximum ethanol concentration, longer than control", "setting": "[1]; p<0.05 vs control sitting", "value": 120, "unit": "%"}, {"measurement": "Arterial diastolic pressure, final", "setting": "[2]; 15 min after infusion of 15 g FDP, basal 67.9 (text 68), p < 0.05 vs basal, glucose 69.6 to 69.6", "value": "75.3 mm Hg and 75 mm Hg"}, {"measurement": "Cardiac frequency, final", "setting": "[2]; 15 min after infusion of 15 g FDP, basal 103.1, p < 0.01 vs basal, glucose 101.7 to 96.9", "value": 94.4, "unit": "beats/minute"}, {"measurement": "Arterial sistolic pressure, final", "setting": "[2]; 15 min after infusion of 15 g FDP, basal 113.2, glucose 113.1 to 110.8", "value": 116.5, "unit": "mm Hg"}, {"measurement": "Blood pressure and heart rate in subjects with basal hypertension accompanied by tachycardia", "setting": "[2]; after FDP", "value": "permits the normal values of both blood pressure and heart rate to be restored"}, {"measurement": "Heart rate, final", "setting": "[2]; after FDP, from 103 basal, significant", "value": 94, "unit": "pulsations/minute"}, {"measurement": "Corneal reflex impairment score, final", "setting": "[3]; 15 min after infusion of 15 g FDP, basal 0.1, glucose 0.1 to 0.1", "value": 0.0}, {"measurement": "Palpebral reflex impairment score, final", "setting": "[3]; 15 min after infusion of 15 g FDP, basal 0.4, p < 0.05 vs basal, glucose 0.5 to 0.1", "value": 0.0}, {"measurement": "Pain reflex impairment score, final", "setting": "[3]; 15 min after infusion of 15 g FDP, basal 0.9, p < 0.05 vs basal, glucose 0.5 to 0.2", "value": 0.3}, {"measurement": "\"Forefinger-nose\" test impairment score, final", "setting": "[3]; 15 min after infusion of 15 g FDP, basal 1.3, p < 0.01 vs basal, glucose 0.9 to 0.7", "value": 0.4}, {"measurement": "Equilibrium impairment score, final", "setting": "[3]; 15 min after infusion of 15 g FDP, basal 1.6, p < 0.01 vs basal, glucose 1.1 to 0.9", "value": 1.1}, {"measurement": "Postural equilibrium, forefinger-nose test, palpebral and pain reflexes", "setting": "[3]; after FDP", "value": "significantly improved"}, {"measurement": "Corneal reflex in patients with basal impairment", "setting": "[3]; at the end of FDP treatment, all the patients", "value": "normal state in this respect at the end of FDP treatment"}, {"measurement": "Elimination half-life of the FDP", "setting": "[4]", "value": "less than 15 minutes"}, {"measurement": "Significance of acetaldehyde concentration differences, FDP vs control", "setting": "[5]", "value": "no statistically significant differences at any of the considered times and ns"}, {"measurement": "Tolerability", "setting": "[6]", "value": "good tolerability"}, {"measurement": "Reflexes impairment score", "setting": "[7]; FDP group (20 g/day i.v. days II-VII plus nutrition), day V", "value": 1.2}, {"measurement": "Ataxia-tremors cramps impairment score", "setting": "[7]; FDP group, day V, p < 0.01 vs basal, control 0.9", "value": 1.0}, {"measurement": "Sensitivity impairment score", "setting": "[7]; FDP group, day V, p < 0.01 vs basal, control 2.4", "value": 2.1}, {"measurement": "Reflexes impairment score", "setting": "[7]; FDP group, day VIII, p < 0.01 vs basal", "value": 1.0}, {"measurement": "Ataxia-tremors cramps impairment score", "setting": "[7]; FDP group, day VIII, p < 0.01 vs basal, control 0.8", "value": 0.5}, {"measurement": "Sensitivity impairment score", "setting": "[7]; FDP group, day VIII, p < 0.01 vs basal, control 1.7", "value": 1.8}, {"measurement": "Reflexes, recovery", "setting": "[7]; day VIII, only in FDP treated group", "value": "the reflexes recovered to normal"}, {"measurement": "Remaining neurological symptomatology, FDP vs control", "setting": "[7]; evolutive tendency in the course of the study", "value": "does not evidence any difference betwen the two treatments"}, {"measurement": "Motor derangement score", "setting": "[8]; day V, control 0.8", "value": 0.6}, {"measurement": "Motor derangement score", "setting": "[8]; day VIII, control 0.5", "value": 0.4}, {"measurement": "Behavioural disorders score", "setting": "[8]; day V, control 0.7", "value": 0.4}, {"measurement": "Conscience disorders score", "setting": "[8]; day V, control 0.6", "value": 0.3}, {"measurement": "Behavioural disorders score", "setting": "[8]; day VIII, control 0.5", "value": 0.3}, {"measurement": "Conscience disorders score", "setting": "[8]; day VIII, control 0.5", "value": 0.2}, {"measurement": "Consumption of chlordimethyldiazepam", "setting": "[8]; FDP vs no FDP", "value": "higher consumption of chlordimethyldiazepam required by patients not having get FDP"}, {"measurement": "Psychiatric symptoms, improvement", "setting": "[8]; day V, FDP treated patients only, p<0.01", "value": "improvement of all of the considered symptoms"}, {"measurement": "Consciousness disorders", "setting": "[8]; eighth day, FDP treated patients, not in control group", "value": "the consciousness disorders did disappear in FDP treated patients"}, {"measurement": "Psychiatric symptomatology connected with the alcohol withdrawal", "setting": "[8]; patients treated with FDP", "value": "disappeared after only five days of treatment"}, {"measurement": "Motor derangement score, final", "setting": "[9]; 15 min after infusion of 15 g FDP, basal 1.1, p < 0.01 vs basal, glucose 1.0 to 0.7", "value": 0.3}, {"measurement": "Vigilance impairment score, final", "setting": "[9]; 15 min after infusion of 15 g FDP, basal 1.1, p < 0.01 vs basal, glucose 1.2 to 1.0 (p < 0.05 vs final FDP)", "value": 0.5}, {"measurement": "Lucidity level score, final", "setting": "[9]; 15 min after infusion of 15 g FDP, basal 1.6, p < 0.01 vs basal, glucose 1.5 to 2.5", "value": 3.6}, {"measurement": "Orientation impairment score, final", "setting": "[9]; 15 min after infusion of 15 g FDP, basal 4.5, p < 0.01 vs basal, glucose 4.3 to 3.4 (p < 0.05 vs final FDP)", "value": 1.7}, {"measurement": "Comparison of treatments, final values for vigilance and orientation", "setting": "[9]; FDP vs glucose solution", "value": "significant difference between FDP and glucose solution"}, {"measurement": "State of psychomotor disorder", "setting": "[9]; after FDP", "value": "tends towards complete disappearance"}, {"measurement": "Vigilance, orientation and mental lucidity", "setting": "[9]; after FDP", "value": "notably improved, with the tendency being towards return to normal levels"}, {"measurement": "Psychic and behavioural state, all parameters", "setting": "[9]; after FDP vs basal", "value": "all of the parameters show to be positively and significantly influenced"}]}
